Measurements from PMC12284294 (iScience, 2025).
Entries after “also recorded” stand apart in the source; their conditions may differ. Peptide text beside a SMILES is read from it.

Key:
[1] = system: neutrophils; assay type: cell-based, human
[2] = system: MMP-9 release of isolated PMNs; assay type: cell-based, human; details: activator mix 3 μM with MPR peptide, n = 5
[3] = system: human polymorphonuclear granulocytes (PMN; neutrophils); assay type: cell-based; details: mix at 3 μM, 1 μM, 0.3 μM; MPR peptide 10 μM co-applied, n = 3
[4] = system: FPR3; details: cited from earlier work
Source text: (§1) Besides viral peptides that interact with FPR1 and FPR2, we identified a large novel group of FPR3 specific viral activators - a receptor for which very few biological relevant activators have been described yet,[53]^,[72] leaving much room for speculations about its major biological function.[1]^,[2] In contrast to FPR1 and FPR2, for which a large panel of receptor subtype-selective ligands have been described, only two biological relevant agonists with a known preference for FPR3 were identified. One is the mitochondrial-derived neuroprotective peptide Humanin[51]^,[52]^,[73] that binds to F ...

[5] = system: FPR2; details: cited from earlier work
Source text: as §1

[6] = target: T1, FPR1 (Homo sapiens, UniProt P21462); assay: cell-based; assay type: binding
T1 construct: expressed in transfected cells; host or cells: HEK293T
T1 sequence (P21462 1-350): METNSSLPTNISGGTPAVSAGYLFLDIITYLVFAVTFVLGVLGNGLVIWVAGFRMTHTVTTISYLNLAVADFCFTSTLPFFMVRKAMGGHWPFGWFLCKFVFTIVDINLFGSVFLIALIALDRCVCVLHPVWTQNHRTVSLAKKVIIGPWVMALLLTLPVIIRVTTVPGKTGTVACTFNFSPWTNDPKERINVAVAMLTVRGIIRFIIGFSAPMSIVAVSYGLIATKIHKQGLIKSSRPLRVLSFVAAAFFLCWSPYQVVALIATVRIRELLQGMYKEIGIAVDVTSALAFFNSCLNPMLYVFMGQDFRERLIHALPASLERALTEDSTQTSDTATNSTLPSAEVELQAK

[7] = system: human FPR2; assay type: cell-based; details: MPR peptides 30 μM, n = 3
[8] = system: neutrophil-like differentiated HL-60 cells (dHL-60); assay type: cell-based, human; details: CV peptides 10 μM, n = 3–5
[9] = system: ERK1/2 phosphorylation via FPR1; assay: ERK1/2 phosphorylation assay in FPR1-transfected HEK293T cells; assay type: cell-based, human; details: MPR peptide 10 μM, 15 min
Method: 300.000 cells were seeded in each well of an uncoated 12-well plate. After 30 min settling time on ice, cells were treated with the respective stimulants and incubated at 37°C, 5% CO2 for 15 min. Cells were subsequently washed with 500 μL PBS and then lysed with 250 μL protein extraction buffer (50 mM Tris-HCl pH 8.0, 5 mM EDTA, 150 mM NaCl, 0.5% [v/v] Triton-X, 5 mM DTT, Roche complete protease inhibitor) for 5 min on ice. Lysates were then placed into protein low bind tubes (Eppendorf) and treated for 20 min in an ultrasonic bath. Samples were centrifuged at 4°C, 12.000 rpm for 20 min to remove debris. Supernatants were collected and stored at −20°C until further use. Protein concentrations were determined using ROTINanoquant in a F[…] multimode reader. Samples were mixed with LDS sample buffer and NuPAGE reduction agent and subsequently heated at 70°C for 10 min 20 μg of each sample were loaded onto a 10% Bis-Tris gel. SDS-PAGE was performed at […] for 40 min. Proteins were blotted onto nitrocellulose membranes using a Wet Tank blotting system at 350 mA for 60 min. Transfer was controlled by Ponceau S staining. Membranes were then blocked with 3% BSA and 0.1% Tween 20 in PBS (PBST) for 60 min. […] Detection of luminescence signals was performed with ECL Prime Kit in a LumiImager. […] Signals of actin staining were measured as described above. […]

[10] = system: human FPR3; assay type: cell-based; details: MPR peptides 30 μM, n = 3

CC[C@H](C)[C@H](NC(=O)[C@H](Cc1ccc(O)cc1)NC(=O)[C@@H](NC(=O)[C@@H](N)CCC(=O)O)[C@@H](C)O)C(=O)N[C@@H](CCCCN)C(=O)N[C@@H](Cc1c[nH]c2ccccc12)C(=O)N1CCC[C@H]1C(=O)N[C@@H](Cc1c[nH]c2ccccc12)C(=O)N[C@@H](Cc1c[nH]c2ccccc12)C(=O)N[C@H](C(=O)N[C@@H](Cc1c[nH]c2ccccc12)C(=O)N[C@@H](CC(C)C)C(=O)O)C(C)C [CV1]
inhibition of the migratory response to the activator peptide mix ([1]; MPR peptide 10 μM co-applied, n = 5): near complete inhibition | effect on activator-mix-triggered MMP-9 release [2]: attenuated | effect on activator-mix-induced calcium flux in neutrophils [3]: calcium flux suppression

F2L: acetylated 21mer N-terminal cleavage product of heme-binding-protein-1
concentrations that activate FPR3 [4]: low nanomolar | concentrations that activate FPR2 [5]: low micromolar

CSCC[C@H](N)C(=O)N[C@@H](Cc1ccc(O)cc1)C(=O)N[C@H](C(=O)N[C@@H](CCCCN)C(=O)N[C@@H](Cc1c[nH]c2ccccc12)C(=O)N1CCC[C@H]1C(=O)N[C@@H](Cc1c[nH]c2ccccc12)C(=O)N[C@@H](Cc1ccc(O)cc1)C(=O)N[C@H](C(=O)N[C@@H](Cc1c[nH]c2ccccc12)C(=O)N[C@@H](CC(C)C)C(=O)O)C(C)C)C(C)C [CV2*] (H-MYVKWPWYVWL-OH; N-terminus and C-terminus assumed)
binding affinity for FPR1, FPR2, and FPR3, fold lower than the other MPR peptides [6]: approximately 10 fold | neutrophil migration ([1]; MPR peptide 10 μM, 90 min, n = 3-5): triggers | calcium levels in FPR2 transfected cells [7]: strongest | calcium signal in dHL-60 cells [8]: positive calcium flux | ERK signaling via FPR1 [9]: triggers | calcium response of FPR3-transfected cells [10]: responded; also recorded: strongest; also recorded: FPR3 activation
